Data as given in patent publication EP1039902B1, “INHIBITORS OF GAP JUNCTION COMMUNICATION” (THE SCRIPPS RESEARCH INSTITUTE, priority 1997, dated 1999).
“Also recorded” adds a separate entry of the source.

What was measured:
[1] = system: rat glial cell gap junction; experiment: Gap junction dye coupling assay (Lucifer yellow dye transfer; microinjection or scrape loading); assay type: cell-based; conditions: for potency of gap junction inhibition relative to oleamide: comparison in words
Method: (§1) Rat glial cells (Suter et al., 1987) obtained from Dr. Trosko's laboratory were cultured in standard plastic tissue cultureware in Richter's Improved Minimal Essential Medium (Irvine Scientific, Santa Ana, CA), supplemented with 10% fetal calf serum and 50 µg/ml gentamicin sulfate, and incubated in a humidified atmosphere of 95% air/5% CO2 at 37°C. The cells were passaged by trypsinization and used at passages 4-8. BHK (baby hamster kidney) cells that were stably transfected with a β1 connexin cDNA (Kumar et al., 1995) were cultured in DMEM medium supplemented with 5% fetal calf serum and 50 µg/ml gentamicin sulfate, and incubated in a humidified atmosphere of 95% air/5% CO2 at 37° C. In order to induce β1 connexin expression in the BHK cells, 100 µM zinc acetate was added to culture medium for 8-18 hours when the cell culture was about 90% confluent.
(§2) Gap junctional communication in glial cell and BHK/β1 cell cultures was assayed by microinjection of 5% Lucifer yellow CH dye in 0.1 M LiCl solution, and quantitated by determining the number of directly adjacent, neighboring cells that received dye (dye-coupling). Micropipettes were loaded with the dye solution by backfilling. Cells were visualized using a Nikon Diaphot inverted phase contrast/ epifluorescent microscope, and impaled with dye-filled micropipettes using an Eppendorf microinjector (model 5246). Five minutes after dye-injection, the transfer of dye to directly adjacent cells was determined using epifluorescent illumination. For each treatment condition, ten cells were microinjected in each of three dishes, the total number of dye-coupled neighboring cells was calculated and compared to determine the % dye-coupling. For scrape loading measurements, Lucifer yellow CH (0.05% dye in PBS) was loaded intracellularly by cutting or scraping cells in the monolayer with a sharp knife. The dye solution was left in the dish for 90 seconds, then the solution was discarded, and the dish subsequently washed with PBS. The cells were examined for dye transfer with an inverted epifluorescence microscope, and the degree of communication was assessed by determining the extent of Lucifer yellow transfer into contiguous cells.

BHK/β1 cells = experiment: Gap junction dye transfer between β1 connexin-transfected BHK cells; assay type: cell-based, baby hamster
Method: as §1, §2

rat glial cells = experiment: Calcium wave propagation (Fluo-3, mechanical stimulation); assay type: cell-based
Method: Rat glial cells were loaded with 5 µM Fluo-3/AM (Calbiochem) in Hank's balanced salt solution containing 25 mM HEPES buffer (HBSS/HEPES) for 1 hour, at which point the loading buffer was exchanged for new HBSS/HEPES buffer. The cell cultures were then left at room temperature for at least 30 minutes. Mechanical stimulation of a single cell was performed as follows: a glass micropipette (tip diameter of approximately 0.5 µm) was micro-manipulated downward on to a single cell causing a transient deformation of the cell membrane. The calcium image was then examined with an inverted fluorescence microscope, and photographed with a digital fluorescence microscope (excitation = 506 nm, emmision = 526 nm). The degree of calcium wave propagation was quantitated by counting at different time points the number of transmitting cells in one linear direction away from the stimulated cell. Junctional dye transfer rates were simultaneously examined by microinjection of Lucifer yellow CH in the same dishes; the methods for dye transfer assay was described in assay procedures, gap junction dye coupling assays. For calcium wave and dye transfer studies, the drug was preincubated with the glial cells for 10 minutes, and the drug was left in the experimental solution throughout the examination. All measurements were performed at room temperature.

α1 connexin = experiment: Immunoblotting of α1 connexin phosphorylation isoforms; assay type: cell-based, rat; conditions: 50 µM, 4 hours
Method: Plasma membrane fractions containing gap junctions were obtained after hypotonic alkali extraction of the glial cells. The extracted protein was dissolved in 2% SDS and the total protein was determined using the Bio-Rad DC Protein Assay kit (Bio-Rad Corp.). 10 µg of protein was electrophoresed by 10% SDS-PAGE, and subsequently blotted electrophoretically on to Immobilon-P membranes (Millipore Corp.). Gap junction protein was detected using anti-α1 connexin polyclonal rabbit antibodies, and the HRP/Chemiluminescence detection kit (Amersham Corp.) following the manufacturer's instructions.

[2] = result in words, concentration not stated at the place

CCCC/C=C\CCCCCCCC(N)=O [14:1^9, Myristoleamide]
inhibition of gap junction-mediated dye transfer [1, 2]: loss of activity

CCCCCCCCCCCCCCCCCC(N)=O [18:0, stearamide]
inhibition of gap junction-mediated dye transfer ([1]; result in words, concentration not given, listed as octadecanamide): ineffective | inhibition of gap junction-mediated dye transfer [1, 2]: no observable inhibition

CC1(C)[C@@H](O)CC[C@]2(C)[C@H]3C(=O)C=C4[C@@H]5C[C@@](C)(C(=O)O)CC[C@]5(C)CC[C@@]4(C)[C@]3(C)CC[C@@H]12 [18β-GA, 18β-glycyrrhetinic acid, reference compound]
effect on dye transfer (BHK/β1 cells; concentration not given): inhibitory effects | calcium wave propagation (rat glial cells; 40 µM, 10 minutes prior to mechanical stimulation): completely blocking; also recorded: did not propagate to any other cells | block of dye transfer ([1]; 40 µM): completely blocking | potency of gap junction inhibition relative to oleamide [1]: blocked dye transfer at doses comparable to oleamide

CCCCCCCC/C=C\CCCCCCCC(=O)OC[C@H](CO)OC(C)=O [(2S)-1-oleoyl-2-acetylglycerol, reference compound]
inhibition of gap junction-mediated dye transfer [1, 2]: not inhibitors

CCCCCCCC/C=C\CCCCCCCC(=O)CBr [BrCH2, 1-Bromo-10Z-nonadecen-2-one]
inhibition of gap junction-mediated dye transfer [1, 2]: substantially less effective

COCCCCCCCC/C=C\CCCCCCCC(N)=O [CH2OCH3]
inhibition of gap junction-mediated dye transfer [1, 2]: did not effect the gap junction inhibition

CCCCCCCC/C=C\CCCCCCC(S)C(N)=O (stereo not shown) [CHSH]
inhibition of gap junction-mediated dye transfer [1, 2]: ineffective

CCCCCCCC/C=C\CCCCCCCC(=O)CCl [ClCH2]
inhibition of gap junction-mediated dye transfer [1, 2]: substantially less effective

CCCCCCCC/C=C\CCCCCCCC(=O)N(C)OC [MeONMe]
inhibition of gap junction-mediated dye transfer [1, 2]: most potent of the agents examined

CCCCCCCC/C=C\CCCCCCCC(=O)NCC(N)=O [N-oleoyl glycinamide]
inhibition of gap junction-mediated dye transfer [1, 2]: ineffective

CCCCCCCC/C=C\CCCCCCCC(=O)NCC(=O)OCC [N-oleoyl glycine ethyl ester]
inhibition of gap junction-mediated dye transfer [1, 2]: effective, albeit slightly less potent, inhibitor

CCCCCCCC/C=C\CCCCCCCC(=O)NCC(=O)O [N-oleoyl glycine]
inhibition of gap junction-mediated dye transfer [1, 2]: ineffective

CCCCCCCC/C=C\CCCCCCCC(=O)N(C)CC(=O)OCC [N-oleoyl sarcosine ethyl ester]
inhibition of gap junction-mediated dye transfer [1, 2]: effective inhibitors

CCCCCCCC/C=C\CCCCCCCC(=O)N(C)CC(=O)O [N-oleoyl sarcosine]
inhibition of gap junction-mediated dye transfer [1, 2]: effective inhibitors

CCCCC/C=C\C/C=C\C/C=C\C/C=C\CCCC(N)=O [arachidonamide]
potency of gap junction inhibition relative to oleamide [1]: not quite as potent as oleamide | inhibition of gap junction-mediated dye transfer [1, 2]: effective inhibitor

NC(=O)CCCCCCC/C=C\CCCCCCCC(=O)O [carboxylic acid]
inhibition of gap junction-mediated dye transfer ([1]; 50 µM): no gap junction inhibition

CCCCCCCCC/C=C\CCCCCCC(N)=O [cis-8-octadecenamide]
inhibition of gap junction-mediated dye transfer ([1]; 50 µM): significant inhibitors | potency of gap junction inhibition relative to oleamide [1]: less potent than oleamide at lower doses

CCCCCC/C=C\CCCCCCCCCC(N)=O [cis-11-octadecenamide]
inhibition of gap junction-mediated dye transfer ([1]; 50 µM): only slightly affected junctional coupling | inhibition of gap junction-mediated dye transfer ([1]; 100 µM): completely blocked dye transfer

CCCCCCCCC#CCCCCCCCC(N)=O [compound 2, 9-octadecynamide]
potency of gap junction inhibition relative to oleamide [1]: only slightly less active than oleamide | inhibition of gap junction-mediated dye transfer [1, 2]: potent inhibitor

CCCCCCCC/C=C\CCCCCCCC(=O)OCC [ethyl oleate]
inhibition of gap junction-mediated dye transfer [1, 2]: progressively reduced effectiveness

CCCCCCCO [heptanol, reference compound]
effect on dye transfer (BHK/β1 cells; concentration not given): inhibitory effects | calcium wave propagation (rat glial cells; 3 mM): completely blocking | block of dye transfer ([1]; 3 mM): completely blocking | minimal effective concentration ([1]; Rattus norvegicus, Glial cell, read-out: concentrations required to inhibit junctional communication): 3000 µM

CCCCC/C=C\C/C=C\CCCCCCCC(N)=O [linoleamide, Linoleamide]
potency of gap junction inhibition relative to oleamide [1]: lower than oleamide

CCCCCCCC/C=C\CCCCCCCC(=O)OC [methyl oleate]
inhibition of gap junction-mediated dye transfer [1, 2]: progressively reduced effectiveness

CCCCCCCC/C=C\CCCCCCCCOC(C)=O [oleyl acetate, Oleyl acetate]
inhibition of gap junction-mediated dye transfer [1, 2]: progressively reduced effectiveness

CCCCCCCC/C=C\CCCCCCCCO [oleyl alcohol, Oleyl alcohol]
inhibition of gap junction-mediated dye transfer [1, 2]: progressively reduced effectiveness

CCCCCCCC/C=C\CCCCCCCC(OC)OC [oleyl aldehyde dimethyl acetal, Oleyl aldehyde dimethyl acetal]
inhibition of gap junction-mediated dye transfer [1, 2]: inactive

CCCCCCCC/C=C\CCCCCCCC(=O)NCCCO [oleyl propanolamide]
inhibition of gap junction-mediated dye transfer [1, 2]: comparable properties

CCCCCC/C=C\CCCCCCCC(N)=O [palmitoleamide, Palmitoleamide]
inhibition of gap junction-mediated dye transfer [1, 2]: potent activity

Cc1ccc(C(=O)Nc2ccc(S(=O)(=O)O)c3cc(S(=O)(=O)O)cc(S(=O)(=O)O)c23)cc1NC(=O)c1cccc(NC(=O)Nc2cccc(C(=O)Nc3cc(C(=O)Nc4ccc(S(=O)(=O)O)c5cc(S(=O)(=O)O)cc(S(=O)(=O)O)c45)ccc3C)c2)c1 [suramin, reference compound]
glial calcium wave transmission (rat glial cells; 200 µM): blocked glial calcium wave transmission | gap junction communication ([1]; 200 µM): without affecting gap junction communication

NC(=O)CCCCCCC/C=C\CCCCCCCC(N)=O [symmetrical 18:1^9 dicarboxamide]
inhibition of gap junction-mediated dye transfer ([1]; 50 µM): no gap junction inhibition

NC(=O)CCCCCCC/C=C\CCCCCCCCO [terminal alcohol, 18-hydroxyoleamide]
inhibition of gap junction-mediated dye transfer ([1]; 50 µM): no gap junction inhibition

CCCCCCCC/C=C/CCCCCCCC(N)=O [trans-9-octadecenamide]
α1 connexin phosphorylation profile (P2 isoform) (α1 connexin): No change | effect on dye transfer (BHK/β1 cells; 50 µM, 4 hours of treatment): no effect | effect on dye transfer (BHK/β1 cells; concentration not given): no effect | inhibition of gap junction-mediated dye transfer ([1]; result in words, concentration not given, listed as 18:1^9-trans): no observable inhibition | inhibition of gap junction-mediated dye transfer [1, 2]: ineffective; also recorded: no effect

CCCCCCCC/C=C\CCCCCCC(C)(C)C(N)=O [α,α-dimethyl oleamide]
inhibition of gap junction-mediated dye transfer [1, 2]: potent inhibitors

CCCCCCCC/C=C\CCCCCCC(SC(C)=O)C(N)=O (stereo not drawn) [α-acetylthiooleamide]
inhibition of gap junction-mediated dye transfer [1, 2]: effective inhibitors

CCCCCCCC/C=C\CCCCCCC(Cl)C(N)=O (stereo not drawn) [α-chlorooleamide]
inhibition of gap junction-mediated dye transfer [1, 2]: effective inhibitors

CCCCCCCC/C=C\CCCCCCC(O)C(N)=O (stereo not drawn) [α-hydroxy oleamide, 2-hydroxy-9Z-octadecenamide]
inhibition of gap junction-mediated dye transfer [1, 2]: effective inhibitors

CC/C=C\C/C=C\C/C=C\CCCCCCCC(N)=O [α-linolenamide]
inhibition of gap junction-mediated dye transfer ([1]; 50 µM): ineffective

CCCCCCCC/C=C\CCCCCCC(C)C(N)=O (stereo not drawn) [α-methyl oleamide]
inhibition of gap junction-mediated dye transfer [1, 2]: potent inhibitors

CCCCC/C=C\C/C=C\C/C=C\CCCCC(N)=O [γ-linolenamide]
inhibition of gap junction-mediated dye transfer [1, 2]: effective but less potent inhibitor
